From patent publication US11530223B2, “Spiro-lactam NMDA receptor modulators and uses thereof” (Aptinyx Inc., priority 2016, dated 2022)
Like-named read-outs stand apart in the source and are kept apart here. Values belong to the molecule of their own block, whether it stands above or below them.

Key:
NMDAR2B = molecular target: T1, NMDAR2B (Homo sapiens, UniProt Q13224); experiment: [3H]MK-801 binding in NMDAR2B expressing HEK cell membranes; type: biochemical; design: key to B: log EC50: 0=−; ≥1×10^−9 M (e.g., −8)=+; <1×10^−9 M (e.g., −10)=++; conditions: 50 μM glutamate; for EC50: read-out: B: log EC50 (converted); for Emax: read-out: A: % maximal [3H]MK-801 binding relative to 1 mM glycine
T1 construct: expressed in transfected cells; host or cells: HEK cells (membrane extract)
T1 sequence (Q13224 27-1484, species assumed, other chains not shown): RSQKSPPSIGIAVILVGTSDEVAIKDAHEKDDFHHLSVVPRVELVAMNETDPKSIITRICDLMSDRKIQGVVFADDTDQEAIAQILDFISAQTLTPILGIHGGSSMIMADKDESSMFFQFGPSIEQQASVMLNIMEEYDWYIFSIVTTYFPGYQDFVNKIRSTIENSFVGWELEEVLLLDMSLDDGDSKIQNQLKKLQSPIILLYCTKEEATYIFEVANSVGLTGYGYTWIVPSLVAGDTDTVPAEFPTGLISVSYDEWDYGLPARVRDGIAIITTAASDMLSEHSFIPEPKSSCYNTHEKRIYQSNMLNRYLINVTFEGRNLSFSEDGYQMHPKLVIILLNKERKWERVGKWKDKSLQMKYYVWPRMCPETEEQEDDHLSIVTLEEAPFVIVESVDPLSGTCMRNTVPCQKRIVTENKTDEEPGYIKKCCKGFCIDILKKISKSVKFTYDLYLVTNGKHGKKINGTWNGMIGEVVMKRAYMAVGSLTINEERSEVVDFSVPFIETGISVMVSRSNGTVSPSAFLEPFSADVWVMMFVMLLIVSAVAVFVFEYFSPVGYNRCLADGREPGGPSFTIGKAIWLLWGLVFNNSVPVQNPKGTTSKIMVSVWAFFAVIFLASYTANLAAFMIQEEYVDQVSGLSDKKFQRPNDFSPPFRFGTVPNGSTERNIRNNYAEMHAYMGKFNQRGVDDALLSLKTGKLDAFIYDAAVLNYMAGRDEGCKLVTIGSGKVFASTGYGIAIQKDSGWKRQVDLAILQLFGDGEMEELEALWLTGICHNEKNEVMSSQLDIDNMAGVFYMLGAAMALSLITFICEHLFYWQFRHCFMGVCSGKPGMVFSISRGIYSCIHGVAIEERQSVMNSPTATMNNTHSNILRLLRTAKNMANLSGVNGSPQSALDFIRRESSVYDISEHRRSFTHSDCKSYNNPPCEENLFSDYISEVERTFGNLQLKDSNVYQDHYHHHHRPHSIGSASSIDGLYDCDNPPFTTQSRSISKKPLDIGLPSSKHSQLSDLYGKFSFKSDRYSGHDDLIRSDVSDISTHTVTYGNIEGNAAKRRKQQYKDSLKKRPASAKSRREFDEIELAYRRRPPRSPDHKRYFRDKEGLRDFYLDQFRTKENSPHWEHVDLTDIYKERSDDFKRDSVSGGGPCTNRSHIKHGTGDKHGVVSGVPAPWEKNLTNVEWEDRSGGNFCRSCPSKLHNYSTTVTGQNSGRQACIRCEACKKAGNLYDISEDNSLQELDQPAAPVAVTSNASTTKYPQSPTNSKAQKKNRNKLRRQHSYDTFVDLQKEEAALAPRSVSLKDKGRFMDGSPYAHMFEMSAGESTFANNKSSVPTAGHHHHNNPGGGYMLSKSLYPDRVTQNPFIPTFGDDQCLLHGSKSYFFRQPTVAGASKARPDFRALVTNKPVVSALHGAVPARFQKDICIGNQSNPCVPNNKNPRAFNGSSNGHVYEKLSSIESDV
Procedure: (§1) Assays were conducted as described by Moskal et al., “GLYX-13: a monoclonal antibody-derived peptide that acts as an N-methyl-D-aspartate receptor modulator,” Neuropharmacology, 49, 1077-87, 2005. These studies were designed to determine if the test compounds act to facilitate NMDAR activation in NMDAR2A, NMDAR2B, NMDAR2C or NMDAR2D expressing HEK cell membranes as measured by increases in [^3H]MK-801 binding.
(§2) In the assay, 300 μg of NMDAR expressing HEK cell membrane extract protein was preincubated for 15 minutes at 25° C. in the presence of saturating concentrations of glutamate (50 μM) and varying concentrations of test compound (1×10^−15M−1×10^−7M), or 1 mM glycine. Following the addition of 0.3 μCi of [^3H]MK-801 (22.5 Ci/mmol), reactions were again incubated for 15 minutes at 25° C. (nonequilibrium conditions). Bound and free [^3H]MK-801 were separated via rapid filtration using a Brandel apparatus.
(§3) In analyzing the data, the DPM (disintegrations per minute) of [^3H]MK-801 remaining on the filter were measured for each concentration of test compound or for 1 mM glycine. The DPM values for each concentration of a ligand (N=2) were averaged. The baseline value was determined from the best fit curve of the DPM values modeled using the GraphPad program and the log(agonist) vs. response (three parameters) algorithm was then subtracted from all points in the dataset. The % maximal [^3H]MK-801 binding was then calculated relative to that of 1 mM glycine: all baseline subtracted DPM values were divided by the average value for 1 mM glycine. The EC50 and % maximal activity were then obtained from the best fit curve of the % maximal [^3H]MK-801 binding data modelled using the GraphPad program and the log(agonist) vs. response (three parameters) algorithm.
(§4) The tables below summarize the results for the wild type […] NMDAR2A, NMDAR2B, NMDAR2C, and NMDAR2D, and whether the compound is not an agonist (−), is an agonist (+), or is a strong agonist (++), where column A is based on the % maximal [^3H]MK-801 binding relative to 1 mM glycine (−=0; <100%=+; and >100%=++); and column B is based on log EC50 values (0=−; ≥1×10^−9 M (e.g., −8)=+; and <1×10^−9 M (e.g., −10)=++).

NMDAR2A = molecular target: T2, NMDAR2A (Homo sapiens, UniProt Q12879); experiment: [3H]MK-801 binding in NMDAR2A expressing HEK cell membranes; type: biochemical; design: key to B: log EC50: 0=−; ≥1×10^−9 M (e.g., −8)=+; <1×10^−9 M (e.g., −10)=++; conditions: 50 μM glutamate; for Emax: read-out: A: % maximal [3H]MK-801 binding relative to 1 mM glycine; for EC50: read-out: B: log EC50 (converted)
T2 construct: expressed in transfected cells; host or cells: HEK cells (membrane extract)
T2 sequence (Q12879 23-1464, species assumed, other chains not shown): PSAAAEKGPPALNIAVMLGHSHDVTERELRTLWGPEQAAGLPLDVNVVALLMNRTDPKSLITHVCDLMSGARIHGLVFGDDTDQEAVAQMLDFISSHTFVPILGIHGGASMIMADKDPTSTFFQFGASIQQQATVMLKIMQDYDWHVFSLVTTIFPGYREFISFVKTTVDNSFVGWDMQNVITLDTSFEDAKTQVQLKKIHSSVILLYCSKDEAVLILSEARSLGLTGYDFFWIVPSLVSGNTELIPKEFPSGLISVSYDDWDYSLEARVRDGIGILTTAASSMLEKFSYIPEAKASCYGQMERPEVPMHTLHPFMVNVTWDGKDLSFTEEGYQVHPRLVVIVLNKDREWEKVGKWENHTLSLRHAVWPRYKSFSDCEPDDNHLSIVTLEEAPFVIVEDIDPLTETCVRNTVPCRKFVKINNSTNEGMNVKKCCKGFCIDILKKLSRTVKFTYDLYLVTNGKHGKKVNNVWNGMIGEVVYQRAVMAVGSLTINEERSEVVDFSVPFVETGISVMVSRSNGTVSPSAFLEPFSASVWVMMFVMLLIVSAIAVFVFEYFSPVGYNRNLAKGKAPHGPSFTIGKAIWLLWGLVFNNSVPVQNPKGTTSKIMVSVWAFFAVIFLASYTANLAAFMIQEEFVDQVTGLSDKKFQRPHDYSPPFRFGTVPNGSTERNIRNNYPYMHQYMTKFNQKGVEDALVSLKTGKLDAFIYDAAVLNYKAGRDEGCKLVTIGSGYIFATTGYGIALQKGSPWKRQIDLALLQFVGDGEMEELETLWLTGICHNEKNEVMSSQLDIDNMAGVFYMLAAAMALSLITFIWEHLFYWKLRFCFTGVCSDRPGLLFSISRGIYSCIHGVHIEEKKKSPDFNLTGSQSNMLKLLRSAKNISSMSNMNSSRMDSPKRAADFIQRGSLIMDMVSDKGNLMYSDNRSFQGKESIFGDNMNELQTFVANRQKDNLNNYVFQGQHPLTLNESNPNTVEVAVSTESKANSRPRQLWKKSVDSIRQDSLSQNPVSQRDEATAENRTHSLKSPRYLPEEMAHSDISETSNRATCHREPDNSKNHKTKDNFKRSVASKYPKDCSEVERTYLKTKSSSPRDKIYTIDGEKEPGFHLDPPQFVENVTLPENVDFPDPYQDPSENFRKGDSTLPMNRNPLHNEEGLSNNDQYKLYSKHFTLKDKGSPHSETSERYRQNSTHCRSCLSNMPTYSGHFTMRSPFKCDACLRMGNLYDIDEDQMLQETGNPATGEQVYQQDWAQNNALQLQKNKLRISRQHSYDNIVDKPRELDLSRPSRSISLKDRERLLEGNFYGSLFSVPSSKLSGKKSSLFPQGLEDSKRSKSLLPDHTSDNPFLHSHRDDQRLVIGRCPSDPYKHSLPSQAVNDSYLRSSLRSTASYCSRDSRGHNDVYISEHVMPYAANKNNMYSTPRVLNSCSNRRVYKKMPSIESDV
Procedure: as §1, §2, §3, §4

[1] = oral pharmacokinetics (plasma, brain, CSF); type: in vivo; conditions: Sprague Dawley rats, per os 10 mg/kg; for Tmax: normal saline (first four compounds: 5% NMP, 5% Solutol HS, 90% normal saline)
Procedure: Plasma, brain, and CSF samples were analyzed at various time points over a 24 hour period.

IV pharmacokinetics = type: in vivo; conditions: Sprague Dawley rats; for C0: normal saline (first four compounds: 5% NMP, 5% Solutol HS, 90% normal saline); for Vd: read-out: Vss
Procedure: Sprague Dawley rats were dosed intravenously using a normal saline formulation containing 2 mg/kg of the compounds identified in the below table (except for the first four compounds that were delivered in 5% NMP, 5% Solutol® HS and 90% normal saline formulation). The table below summarizes the results of the IV pharmacokinetics.

Sprague Dawley rats = experiment: Porsolt forced swim test; type: in vivo; conditions: 0.1 mg/kg; for % reduction in float time: relative to vehicle group
Procedure: A non-clinical in vivo pharmacology study (Porsolt assay) was performed to measure antidepressant-like effects. A negative control (0.5% sodium carboxymethyl cellulose in 0.9% sterile saline vehicle) and a positive control (fluoxetine) are shown for comparison against test compound. The study allowed for the evaluation of the effects of each compound on the Porsolt forced swim test as assessed by the rats' response (reduced floating time) during a 5-minute swimming test.
Male 2-3 month old Sprague Dawley rats were used (Harlan, Indianapolis, Ind.). Rats were housed in Lucite cages with aspen wood chip bedding, maintained on a 12:12 light:dark cycle (lights on at 5 AM), and given ad libitum access to Purina lab chow (USA) and tap water throughout the study.
The Porsolt forced swim test adapted for use in rats was performed as described by Burgdorf et al., (The long-lasting antidepressant effects of rapastinel (GLYX-13) are associated with a metaplasticity process in the medial prefrontal cortex and hippocampus. Neuroscience 308:202-211, 2015). Animals were placed in a 46 cm tall×20 cm in diameter clear glass tube filled to 30 cm with tap water (23±1° C.) for 15 min on the first day (habituation) and 5 min on the subsequent test day. Positive control fluoxetine was dosed 3 times (24 h, 5 h and 1 h) prior to testing. Animals were tested 1 h or 24 h post-dosing with the test compounds or vehicle. Animals received a 15 min habituation session 1 day before the 5 min test. A subset of compounds tested at 1 h post-dosing were retested at 1 wk post-dosing in the same sets of animals. Water was changed after every other animal. Animals were videotaped, and floating time as defined as the minimal amount of effort required to keep the animals head above water was scored offline by a blinded experimenter with high inter-rater reliability (Pearson's r>0.9).
Each compound tested at dose level shown. Significance vs. vehicle group for each experiment is marked. […] A compound marked “No” was not statistically significant from vehicle. Data was averaged for test compound and vehicle groups (N approximately 8 per group) and the percent reduction in floating for group treated with test compound relative to group treated with vehicle is shown.

NMDAR2D = molecular target: T3, NMDAR2D (Homo sapiens, UniProt O15399); experiment: [3H]MK-801 binding in NMDAR2D expressing HEK cell membranes; type: biochemical; design: key to B: log EC50: 0=−; ≥1×10^−9 M (e.g., −8)=+; <1×10^−9 M (e.g., −10)=++; conditions: for A: % maximal [3H]MK-801 binding relative to 1 mM glycine: c3, taken as NMDAR2D
T3 construct: expressed in transfected cells; host or cells: HEK cells (membrane extract)
T3 sequence (O15399 28-1336, species assumed, other chains not shown): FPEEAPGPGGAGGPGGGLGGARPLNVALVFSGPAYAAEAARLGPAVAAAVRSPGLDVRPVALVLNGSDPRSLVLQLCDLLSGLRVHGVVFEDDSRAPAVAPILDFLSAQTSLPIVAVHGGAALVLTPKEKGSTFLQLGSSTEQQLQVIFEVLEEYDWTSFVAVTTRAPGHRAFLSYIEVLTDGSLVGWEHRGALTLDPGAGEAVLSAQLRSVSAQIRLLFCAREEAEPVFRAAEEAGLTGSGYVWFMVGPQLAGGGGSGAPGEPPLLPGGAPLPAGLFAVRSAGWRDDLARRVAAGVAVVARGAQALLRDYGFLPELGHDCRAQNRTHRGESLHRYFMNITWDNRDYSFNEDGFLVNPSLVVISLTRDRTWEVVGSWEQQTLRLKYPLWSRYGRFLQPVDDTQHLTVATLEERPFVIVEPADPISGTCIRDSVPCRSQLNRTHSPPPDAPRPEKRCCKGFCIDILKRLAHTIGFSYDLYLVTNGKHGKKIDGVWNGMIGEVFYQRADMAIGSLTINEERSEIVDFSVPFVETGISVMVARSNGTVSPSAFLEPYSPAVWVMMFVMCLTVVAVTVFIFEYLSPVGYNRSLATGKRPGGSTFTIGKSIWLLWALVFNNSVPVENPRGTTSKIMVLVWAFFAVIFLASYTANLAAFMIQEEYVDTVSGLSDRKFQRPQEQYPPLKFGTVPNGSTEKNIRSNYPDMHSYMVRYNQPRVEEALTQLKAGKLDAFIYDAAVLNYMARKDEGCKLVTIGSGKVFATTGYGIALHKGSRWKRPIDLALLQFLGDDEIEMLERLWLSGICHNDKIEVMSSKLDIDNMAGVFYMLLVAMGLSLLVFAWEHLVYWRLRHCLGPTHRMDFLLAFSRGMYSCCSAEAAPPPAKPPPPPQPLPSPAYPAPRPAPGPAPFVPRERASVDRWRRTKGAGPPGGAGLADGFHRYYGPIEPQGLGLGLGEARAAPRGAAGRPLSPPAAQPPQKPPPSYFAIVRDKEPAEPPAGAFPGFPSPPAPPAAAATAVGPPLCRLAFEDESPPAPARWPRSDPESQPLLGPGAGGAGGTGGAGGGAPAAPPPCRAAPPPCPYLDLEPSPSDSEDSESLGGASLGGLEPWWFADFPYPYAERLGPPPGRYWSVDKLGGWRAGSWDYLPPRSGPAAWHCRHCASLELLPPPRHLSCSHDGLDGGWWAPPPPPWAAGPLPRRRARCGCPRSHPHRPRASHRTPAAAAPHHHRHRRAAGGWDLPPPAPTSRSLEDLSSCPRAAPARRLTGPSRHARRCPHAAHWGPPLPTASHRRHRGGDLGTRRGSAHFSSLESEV
Procedure: as §1, §2, §3, §4

[2] = Sprague Dawley, rat, plasma, po, 10 mg/kg
[3] = Sprague Dawley, rat, plasma, po, 10 mg/kg, read-out: Tmax
[4] = Sprague Dawley, rat, plasma, po, 10 mg/kg, plasma, read-out: Cmax
[5] = Sprague Dawley, rat, in vivo, iv, 2 mg/kg
[6] = Sprague Dawley, rat, in vivo, iv, 2 mg/kg, read-out: C0
[7] = 1 h post-dose, floating time in 5 min test

Compound: CC(=O)N1CCCC12CCNC2=O (stereo not shown) [RZ-403]
- A: % maximal [3H]MK-801 binding relative to 1 mM glycine (NMDAR2B): ++ (>100%=++)
- EC50 (NMDAR2B): < 1 nM
- A: % maximal [3H]MK-801 binding relative to 1 mM glycine (NMDAR2A): − (−=0)
- B: log EC50 (NMDAR2A): −

Compound: CC(=O)N1CCC2(CCNC2=O)CC1 [RG-621]
- CSF Cmax [1]: 3654.37 ng/mL
- Brain Cmax [1]: 1977.29 ng/mL
- AUC(0-t) [1, 2]: 29100 ng·h/mL
- bioavailability [1, 2]: 93%
- Tmax [1, 3]: 34.8 min
- Cmax [1, 4]: 12000 ng/mL
- Emax (NMDAR2B): > 100%
- EC50 (NMDAR2B): < 1 nM
- Emax (NMDAR2A): < 100%
- EC50 (NMDAR2A): < 1 nM
- AUC(0-t) (IV pharmacokinetics; [5]): 6230 ng·h/mL
- clearance (IV pharmacokinetics; [5]): 5.33 mL/min/kg
- half-life (IV pharmacokinetics; [5]): 103 min
- C0 (IV pharmacokinetics; [6]): 4760 ng/mL
- Vd (IV pharmacokinetics; [5]): 0.52 L/kg

Compound: O=C1NCCC12CCCCN2 (stereo not shown) [RG-602]
- Significance vs. vehicle (Sprague Dawley rats; 1 wk post-dose): Yes (statistically significant (p<=0.05) from vehicle at dose level shown)
- % reduction in float time (Sprague Dawley rats; 1 wk post-dose): 55.5%
- Significance vs. vehicle (Sprague Dawley rats; [7]): Yes (statistically significant (p<=0.05) from vehicle at dose level shown)
- % reduction in float time (Sprague Dawley rats; 1 h post-dose): 71.1%
- A: % maximal [3H]MK-801 binding relative to 1 mM glycine (NMDAR2B): + (<100%=+)
- EC50 (NMDAR2B): < 1 nM
- A: % maximal [3H]MK-801 binding relative to 1 mM glycine (NMDAR2A): + (<100%=+)
- EC50 (NMDAR2A): < 1 nM
- A: % maximal [3H]MK-801 binding relative to 1 mM glycine (NMDAR2D; second part of table (r25-r35)): + (<100%=+)
- EC50 (NMDAR2D; second part of table (r25-r35), c4, taken as NMDAR2D, read-out: B: log EC50 (converted)): < 1 nM

Compound: O=C1NCCC12CCNCC2 [RG-603]
- AUC(0-t) [1, 2]: 897 ng·h/mL
- bioavailability [1, 2]: 11%
- Tmax [1, 3]: 60 min
- Cmax [1, 4]: 311 ng/mL
- Emax (NMDAR2B): < 100%
- EC50 (NMDAR2B): < 1 nM
- Emax (NMDAR2A): < 100%
- EC50 (NMDAR2A): ≥ 1 nM
- AUC(0-t) (IV pharmacokinetics; [5]): 1570 ng·h/mL
- clearance (IV pharmacokinetics; [5]): 21.1 mL/min/kg
- half-life (IV pharmacokinetics; [5]): 59.4 min
- C0 (IV pharmacokinetics; [6]): 5190 ng/mL
- Vd (IV pharmacokinetics; [5]): 0.81 L/kg

Compound: CC(C)C(=O)N1CCC2(CCNC2=O)CC1 [RG-623]
- Significance vs. vehicle (Sprague Dawley rats; [7]): Yes (statistically significant (p<=0.05) from vehicle at dose level shown)
- % reduction in float time (Sprague Dawley rats; 1 h post-dose): 60.0%
- Significance vs. vehicle (Sprague Dawley rats; 24 h post-dose): Yes (statistically significant (p<=0.05) from vehicle at dose level shown)
- % reduction in float time (Sprague Dawley rats; 24 h post-dose): 52.9%
- CSF Cmax [1]: 4727 ng/mL
- Brain Cmax [1]: 4317 ng/mL
- AUC(0-t) [1, 2]: 42600 ng·h/mL
- bioavailability [1, 2]: 81%
- Cmax [1, 4]: 10900 ng/mL
- Tmax ([1]; rat, plasma, po, read-out: Tmax): 25.2 min
- Emax (NMDAR2B): < 100%
- EC50 (NMDAR2B): < 1 nM
- B: log EC50 (NMDAR2A): −
- Emax (NMDAR2A): 0%
- AUC(0-t) (IV pharmacokinetics; [5]): 10500 ng·h/mL
- clearance (IV pharmacokinetics; [5]): 3.18 mL/min/kg
- half-life (IV pharmacokinetics; [5]): 239 min
- C0 (IV pharmacokinetics; [6]): 4130 ng/mL
- Vd (IV pharmacokinetics; [5]): 0.56 L/kg

Compound: O=C1NCCC12CCCN2 (stereo not shown) [RX-1, 1,7-diazaspiro[4.4]nonan-6-one]
- B: log EC50 (NMDAR2B): −
- Emax (NMDAR2B): 0%
- B: log EC50 (NMDAR2A): −
- Emax (NMDAR2A): 0%

Compound: CC(=O)N1CCCC12CCNC2=O (stereo not shown) [RZ-404]
- A: % maximal [3H]MK-801 binding relative to 1 mM glycine (NMDAR2B): − (−=0)
- B: log EC50 (NMDAR2B): −
- A: % maximal [3H]MK-801 binding relative to 1 mM glycine (NMDAR2A): + (<100%=+)
- EC50 (NMDAR2A): < 1 nM

The remaining lines, values ahead:

- B: log EC50 (NMDAR2B): −
- B: log EC50 (NMDAR2A): −
Compound: CC(C)C(=O)N1CCCCC12CCNC2=O (stereo not shown) [RG-610]

- A: % maximal [3H]MK-801 binding relative to 1 mM glycine (NMDAR2B): + (<100%=+)
- EC50 (NMDAR2B): < 1 nM
- A: % maximal [3H]MK-801 binding relative to 1 mM glycine (NMDAR2A): − (−=0)
- B: log EC50 (NMDAR2A): −
Compound: CC(C)C(=O)N1CCCC12CCNC2=O (stereo not shown) [RZ-406]

- % F [1]: 48%
- AUClast [1]: 1933 ng·h/mL
- CSF Cmax [1]: 1077 ng/mL
- Brain Cmax [1]: 612 ng/mL
- Tmax [1]: 15 min
- Cmax ([1]; plasma): 2812 ng/mL
- A: % maximal [3H]MK-801 binding relative to 1 mM glycine (NMDAR2B): + (<100%=+)
- EC50 (NMDAR2B): < 1 nM
- A: % maximal [3H]MK-801 binding relative to 1 mM glycine (NMDAR2A): − (−=0)
- B: log EC50 (NMDAR2A): −
- AUClast (IV pharmacokinetics; intravenous 2 mg/kg): 804 ng·h/mL
- Cl (IV pharmacokinetics; intravenous 2 mg/kg): 41.29 mL/min/kg
- T1/2 (IV pharmacokinetics; intravenous 2 mg/kg): 20.4 min
- Vss (IV pharmacokinetics; intravenous 2 mg/kg): 0.91 L/kg
- C0 (IV pharmacokinetics; intravenous 2 mg/kg): 2303 ng/mL
- A: % maximal [3H]MK-801 binding relative to 1 mM glycine (NMDAR2D; second part of table (r25-r35)): − (−=0)
- B: log EC50 (NMDAR2D; second part of table, c4, taken as NMDAR2D): −
Compound: CC(C)(C)OC(=O)N1CCCCC12CCNC2=O (stereo not shown) [RG-606]

- B: log EC50 (NMDAR2B): −
- Emax (NMDAR2B): 0%
- B: log EC50 (NMDAR2A): −
- Emax (NMDAR2A): 0%
Compound: CC(C)(C)OC(=O)N1CCC2(CCNC2=O)CC1 [RG-619]

- B: log EC50 (NMDAR2B): −
- Emax (NMDAR2B): 0%
- B: log EC50 (NMDAR2A): −
- Emax (NMDAR2A): 0%
Compound: CC(C)C(=O)N1CCCCC12CCNC2=O (stereo not shown) [RG-609]
